Results: US10301291B2, “Imidazole derivative having JNK inhibitory activity and use thereof” (SAMJIN PHARMACEUTICAL CO., LTD., priority 2016, dated 2019)

Molecular target: JNK3 (Homo sapiens (Human), UniProt P53779)
Experiment: Measurement of JNK3 enzyme activity (33P-ATP filter-binding)
Type: biochemical
Details: human JNK3, ATP 10 μM, ATF2 3 μM
Procedure: The changes in JNK3 enzyme activity resulting from being treated with the inventive imidazole derivative (Formula 1) shown in a following Table 1 were identified through IC50.
First of all, after a substrate was inserted into a prepared base reaction buffer solution (20 mM Hepes ([…]), 10 mM MgCl2, 1 mM EGTA, 0.02% Brij35, 0.02 mg/ml BSA, 0.1 mM Na3VO4, 2 mM DTT, 1% DMSO), a human JNK3 enzyme was added into a prepared substrate solution and then mixed together. As the substrate, ATP (10 μM) and ATF2 (3 μM) were used, among which the ATP was also used as a common substrate. Then, compounds of Examples 1-18 and 25-36, which were dissolved in 100% DMSO, were inserted into an enzyme reaction solution, and then cultured at room temperature for 20 minutes. Then, ^33P-ATP was inserted into the above reaction mixture solution to initiate a reaction, then cultured at room temperature for 2 hours, and then an enzyme activity was detected by means of a filter-binding method.
Particularly, after each 25 μl of the resulting solution was slowly spotted on P81 paper, it was inserted into a scintillation vial, and washed with 0.75% phosphoric acid four times for 10 minutes each, and with acetone once for 5 minutes. 5 ml of scintillation cocktail was inserted into the above scintillation vial and a resulting signal was read by means of a scintillation counter.
IC50 values of compounds of Examples 1-18 and 25-36 with regard to JNK3 enzyme activity were shown in a following Table 2.

Sequence of JNK3 (P53779 whole entry): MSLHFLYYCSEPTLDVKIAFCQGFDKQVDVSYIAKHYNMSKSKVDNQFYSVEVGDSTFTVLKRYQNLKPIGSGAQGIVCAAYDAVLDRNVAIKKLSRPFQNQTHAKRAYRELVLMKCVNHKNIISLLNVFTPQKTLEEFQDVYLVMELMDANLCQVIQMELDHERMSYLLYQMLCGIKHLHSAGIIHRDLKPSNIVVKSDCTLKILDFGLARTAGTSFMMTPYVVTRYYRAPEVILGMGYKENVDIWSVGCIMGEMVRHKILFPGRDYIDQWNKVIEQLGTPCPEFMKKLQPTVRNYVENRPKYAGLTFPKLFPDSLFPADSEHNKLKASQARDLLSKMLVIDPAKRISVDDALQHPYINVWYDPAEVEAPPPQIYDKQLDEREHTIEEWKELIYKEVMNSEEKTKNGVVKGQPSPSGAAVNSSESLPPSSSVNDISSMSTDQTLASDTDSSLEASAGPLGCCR

| Compound | IC50 [nM] |
| --- | --- |
| N#CCc1cnc(-c2ccc3ccccc3n2)n1-c1ccnc(NC2CCCCC2)n1 [Example 9, 2-(1-(2-(cyclohexylamino)pyrimidine-4-yl)-2-(quinoline-2-yl)-1H-imidazole-5-yl)acetonitrile] | > 100 |
| N#CCc1cnc(-c2ccc(F)c(C(F)(F)F)c2)n1-c1ccnc(NC2CCCCC2)n1 [Example 12, 2-(1-(2-(cyclohexylamino)pyrimidine-4-yl)-2-(4-fluoro-3-(trifluoromethyl)phenyl)-1H-imidazole-5-yl)acetonitrile] | > 100 |
| N#CCc1cnc(-c2ccc3c(c2)OCO3)n1-c1ccnc(NC2CCOCC2)n1 [Example 1, 2-(2-(benzo[d][1,3]dioxol-5-yl)-1-(2-(tetrahydro-2H-pyran-4-ylamino)pyrimidine-4-yl)-1H-imidazole-5-yl)acetonitrile] | 30 to 100 |
| CC(O)CNc1nccc(-n2c(CC#N)cnc2-c2ccc3ccccc3c2)n1 (stereo not drawn) [Example 16, 2-(1-(2-(2-hydroxypropylamino)pyrimidine-4-yl)-2-(naphthalene-2-yl)-1H-imidazole-5-yl)acetonitrile] | 30 to 100 |
| N#CCc1cnc(-c2ccc3c(c2)OCCO3)n1-c1ccnc(NC2CCCN(C(=O)C3CC3)C2)n1 (stereo not drawn) [Example 32, 2-(1-(2-(1-(cyclopropanecarbonyl)piperidine-3-ylamino)pyrimidine-4-yl)-2-(2,3-dihydrobenzo[b][1,4]dioxin-6-yl)-1H-imidazole-5-yl)acetonitrile] | 30 to 100 |
| N#CCc1cnc(-c2ccc3c(c2)OCCO3)n1-c1ccnc(NC2CCOCC2)n1 [Example 2, 2-(2-(2,3-dihydrobenzo[b][1,4]dioxin-6-yl)-1-(2-(tetrahydro-2H-pyran-4-ylamino)pyrimidine-4-yl)-1H-imidazole-5-yl)acetonitrile] | > 100 |
| N#CCc1cnc(-c2ccc3ccccc3n2)n1-c1ccnc(NC2CCCNC2)n1 (stereo not drawn) [Example 27, 2-(1-(2-(piperidine-3-ylamino)pyrimidine-4-yl)-2-(quinoline-2-yl)-1H-imidazole-5-yl)acetonitrile] | 30 to 100 |
| N#CCc1cnc(-c2ccc(Cl)c(Cl)c2)n1-c1ccnc(NC2CCOCC2)n1 [Example 5, 2-(2-(3,4-dichlorophenyl)-1-(2-(tetrahydro-2H-pyran-4-ylamino)pyrimidine-4-yl)-1H-imidazole-5-yl)acetonitrile] | 30 to 100 |
| N#CCc1cnc(-c2ccc(F)c(C(F)(F)F)c2)n1-c1ccnc(NC2CCCNC2)n1 (stereo not drawn) [Example 30, 2-(2-(4-fluoro-3-(trifluoromethyl)phenyl)-1-(2-(piperidine-3-ylamino)pyrimidine-4-yl)-1H-imidazole-5-yl)acetonitrile] | 30 to 100 |
| CC(O)CNc1nccc(-n2c(CC#N)cnc2-c2ccc(F)c(C(F)(F)F)c2)n1 (stereo not drawn) [Example 18, 2-(2-(4-fluoro-3-(trifluoromethyl)phenyl)-1-(2-(2-hydroxypropylamino)pyrimidine-4-yl)-1H-imidazole-5-yl)acetonitrile] | 30 to 100 |
| N#CCc1cnc(-c2ccc3c(c2)OCCO3)n1-c1ccnc(NC2CCCNC2)n1 (stereo not drawn) [Example 26, 2-(2-(2,3-dihydrobenzo[b][1,4]dioxin-6-yl)-1-(2-(piperidine-3-ylamino)pyrimidine-4-yl)-1H-imidazole-5-yl)acetonitrile] | 30 to 100 |
| N#CCc1cnc(-c2ccc3c(c2)OCCO3)n1-c1ccnc(NC2CCCCC2)n1 [Example 8, 2-(1-(2-(cyclohexylamino)pyrimidine-4-yl)-2-(2,3-dihydrobenzo[b][1,4]dioxin-6-yl)-1H-imidazole-5-yl)acetonitrile] | > 100 |
| N#CCc1cnc(-c2ccc(Cl)c(Cl)c2)n1-c1ccnc(NC2CCCN(C(=O)C3CC3)C2)n1 (stereo not drawn) [Example 35, 2-(1-(2-(1-(cyclopropanecarbonyl)piperidine-3-ylamino)pyrimidine-4-yl)-2-(3,4-dichlorophenyl)-1H-imidazole-5-yl)acetonitrile] | 30 to 100 |
| CC(O)CNc1nccc(-n2c(CC#N)cnc2-c2ccc(Cl)c(Cl)c2)n1 (stereo not drawn) [Example 17, 2-(2-(3,4-dichlorophenyl)-1-(2-(2-hydroxypropylamino)pyrimidine-4-yl)-1H-imidazole-5-yl)acetonitrile] | 30 to 100 |
| N#CCc1cnc(-c2ccc(Cl)c(Cl)c2)n1-c1ccnc(NC2CCCNC2)n1 (stereo not drawn) [Example 29, 2-(2-(3,4-dichlorophenyl)-1-(2-(piperidine-3-ylamino)pyrimidine-4-yl)-1H-imidazole-5-yl)acetonitrile] | 30 to 100 |
| N#CCc1cnc(-c2ccc3c(c2)OCO3)n1-c1ccnc(NC2CCCNC2)n1 (stereo not drawn) [Example 25, 2-(2-(benzo[d][1,3]dioxol-5-yl)-1-(2-(piperidine-3-ylamino)pyrimidine-4-yl)-1H-imidazole-5-yl) acetonitrile] | > 100 |
| N#CCc1cnc(-c2ccc3c(c2)OCO3)n1-c1ccnc(NC2CCCCC2)n1 [Example 7, 2-(2-(benzo[d][1,3]dioxol-5-yl)-1-(2-(cyclohexylamino)pyrimidine-4-yl)-1H-imidazole-5-yl)acetonitrile] | > 100 |

Second part, the compound after the results:

| IC50 [nM] | Compound |
| --- | --- |
| 30 to 100 | N#CCc1cnc(-c2ccc(F)c(C(F)(F)F)c2)n1-c1ccnc(NC2CCOCC2)n1 [Example 6, 2-(2-(4-fluoro-3-(trifluoromethyl)phenyl)-1-(2-(tetrahydro-2H-pyran-4-ylamino)pyrimidine-4-yl)-1H-imidazole-5-yl)acetonitrile] |
| 30 to 100 | CC(O)CNc1nccc(-n2c(CC#N)cnc2-c2ccc3ccccc3n2)n1 (stereo not drawn) [Example 15, 2-(1-(2-(2-hydroxypropylamino)pyrimidine-4-yl)-2-(quinoline-2-yl)-1H-imidazole-5-yl)acetonitrile] |
| 30 to 100 | N#CCc1cnc(-c2ccc3c(c2)OCO3)n1-c1ccnc(NC2CCCN(C(=O)C3CC3)C2)n1 (stereo not drawn) [Example 31, 2-(2-(benzo[d][1,3]dioxol-5-yl)-1-(2-(1-(cyclopropanecarbonyl)piperidine-3-ylamino)pyrimidine-4-yl)-1H-imidazole-5-yl)acetonitrile] |
| 30 to 100 | N#CCc1cnc(-c2ccc3ccccc3c2)n1-c1ccnc(NC2CCCCC2)n1 [Example 10, 2-(1-(2-(cyclohexylamino)pyrimidine-4-yl)-2-(naphthalene-2-yl)-1H-imidazole-5-yl)acetonitrile] |
| < 30 | N#CCc1cnc(-c2ccc3occc3c2)n1-c1ccnc(NC2CCCN(C(=O)C3CC3)C2)n1 (stereo not drawn) [Example 37] |
| 30 to 100 | N#CCc1cnc(-c2ccc(F)c(C(F)(F)F)c2)n1-c1ccnc(NC2CCCN(C(=O)C3CC3)C2)n1 (stereo not drawn) [Example 36, 2-(1-(2-(1-(cyclopropanecarbonyl)piperidine-3-ylamino)pyrimidine-4-yl)-2-(4-fluoro-3-(trifluoromethyl)phenyl)-1H-imidazole-5-yl)acetonitrile] |
| 30 to 100 | N#CCc1cnc(-c2ccc(Cl)c(Cl)c2)n1-c1ccnc(NC2CCCCC2)n1 [Example 11, 2-(1-(2-(cyclohexylamino)pyrimidine-4-yl)-2-(3,4-dichlorophenphenyl)-1H-imidazole-5-yl)acetonitrile] |
| 30 to 100 | N#CCc1cnc(-c2ccc3ccccc3n2)n1-c1ccnc(NC2CCOCC2)n1 [Example 3, 2-(2-(quinoline-2-yl)-1-(2-(tetrahydro-2H-pyran-4-ylamino)pyrimidine-4-yl)-1H-imidazole-5-yl) acetonitrile] |
| 30 to 100 | CC(O)CNc1nccc(-n2c(CC#N)cnc2-c2ccc3c(c2)OCO3)n1 (stereo not drawn) [Example 13, 2-(2-(benzo[d][1,3]dioxol-5-yl)-1-(2-(2-hydroxypropylamino)pyrimidine-4-yl)-1H-imidazole-5-yl)acetonitrile] |
| 30 to 100 | CC(O)CNc1nccc(-n2c(CC#N)cnc2-c2ccc3c(c2)OCCO3)n1 (stereo not drawn) [Example 14, 2-(2-(2,3-dihydrobenzo[b][1,4]dioxin-6-yl)-1-(2-(2-hydroxypropylamino)pyrimidine-4-yl)-1H-imidazole-5-yl)acetonitrile] |
| < 30 | N#CCc1cnc(-c2ccc3ccccc3n2)n1-c1ccnc(NC2CCCN(C(=O)C3CC3)C2)n1 (stereo not drawn) [Example 33, 2-(1-(2-(1-(cyclopropanecarbonyl)piperidine-3-ylamino)pyrimidine-4-yl)-2-(quinoline-2-yl)-1H-imidazole-5-yl)acetonitrile] |
| < 30 | N#CCc1cnc(-c2ccc3ccccc3c2)n1-c1ccnc(NC2CCOCC2)n1 [Example 4, 2-(2-(naphthalene-2-yl)-1-(2-(tetrahydro-2H-pyran-4-ylamino)pyrimidine-4-yl)-1H-imidazole-5-yl)acetonitrile] |
| < 30 | N#CCc1cnc(-c2ccc3ccccc3c2)n1-c1ccnc(NC2CCCNC2)n1 (stereo not drawn) [Example 28, 2-(2-(naphthalene-2-yl)-1-(2-(piperidine-3-ylamino)pyrimidine-4-yl)-1H-imidazole-5-yl)acetonitrile] |
